Laboratory results from patent US5798365A, “Substituted quinoline derivatives, a process for their preparation, and their use” (Hoechst Aktiengesellschaft, priority 1994, dated 1998).
Values after ≈ are worked out from the molar mass of the structure shown. Where two headings read alike, the source gives them in different places.

Assays:
[1] = system: HIV; assay: Testing preparations against HIV in cell culture (infected human donor lymphocytes); format: cell-based; conditions: for MIC: Human immunodeficiency virus 1, 72 h, lowest concentration without giant cells; for IC50: Human immunodeficiency virus 1, Lymphocyte, 72 h
Description: Testing preparations against HIV in cell culture
Description of the method
The complete medium additionally contains 20% foetal calf serum and 40 IU/ml recombinant interleukin 2.
Lymphocytes which have been isolated from fresh donor blood by means of Ficoll® gradient centrifugation are cultured, at 37° C. for 36 h and under 5% CO2, in complete medium in the added presence of […] phytohemagglutinin (Wellcome). After the addition of 10% DMSO, the cells are frozen at a cell density of 5×10^6 and stored in liquid nitrogen. For the experiment, the cells are thawed, washed in RPMI medium and cultured for 3-4 days in complete medium.
The preparations for testing were dissolved in DMSO at a concentration of 16.7 mg/ml and diluted to 1 mg/ml in complete medium. 0.4 ml of medium was initially introduced in 24-well multiwell plates. After 0.1 ml of the dissolved preparation had been added to the upper row of the plate, a geometrical dilution series was produced by transferring 0.1 ml on each occasion. Preparation-free controls always contained 0.4 ml of complete medium containing 0.5% DMSO.
Lymphocyte cultures having a cell count of 5×10^5 cells/ml were infected by adding a 1/50 volume of the supernatant from lymphocyte cultures infected with HIV. The titer of these culture supernatants was determined, by end point dilution, to be 1-5×10^6 infectious units/ml. After incubating at 37° C. for 30 min, the infected lymphocytes were centrifuged off and taken up once again in the same volume of medium. 0.6 ml of this cell suspension was added to each of the wells in the test plate. The assay mixtures were incubated at 37° C. for 3 days.
The infected cell cultures were examined under the microscope for the presence of giant cells, which indicate that the virus is multiplying actively in the culture. The lowest preparation concentration at which no giant cells appeared was defined as the inhibitory concentration against HIV (MIC value). As a control, the presence of HIV antigen in the supernatants from the culture plates was determined using a test for HIV antigen in accordance with the manufacturer's (Organon) instructions.

[2] = biological target: T1, HIV reverse transcriptase (Human immunodeficiency virus type 1 group M subtype B, UniProt P04585); assay: Inhibition of HIV reverse transcriptase, scintillation proximity assay (SPA); format: biochemical; conditions: RT-SPA, 60 min, 37° C., read-out: Reverse Transcriptase Asaay IC-50 (converted)
T1 construct: purchased HT-Biotechnology LTD, Cambridge, UK; host or cells: E. coli
Description: Investigation of the ability of the substances to inhibit the HIV reverse transcriptase
The activity of the reverse transcriptase (RT) was measured by means of a scintillation proximity assay (SPA).
The reagent kit for the RT-SPA was obtained from Amersham/Buchler (Braunschweig). The RT enzyme (originating from HIV and cloned in E. coli) was provided by HT-Biotechnology LTD, Cambridge, UK.
The test was carried out in accordance with the supplier's (Amersham) methods manual--with the following modifications:
bovine serum albumin was added to the assay buffer to a final concentration of 0.5 mg/ml.
The test was carried out in Eppendorf reaction tubes using a mixture volume of […].
The supplier's RT concentrate (5000 U/ml) was diluted in 20 mM tris-HCl buffer; pH 7.2; 30% glycerol to an activity of 15 U/ml.
The assay mixtures were incubated for 60 min (at 37° C.).
After the reaction had been stopped and "developed" using the bead suspension, […] of assay mixture was transferred into 4.5 ml of 10 mM tris-HCl buffer; pH 7.4; 0.15M NaCl
and the tritium activity was measured in a β counter.
In order to carry out a preliminary test for inhibitor activity, the substances were dissolved in DMSO (stock solution concentration=1 mg/ml) and tested at 10^-1, 10^-2, 10^-3, etc. dilutions in DMSO.
In order to determine the IC50 values, the stock solutions of inhibitor were further diluted in 50 mM tris-HCl buffer, pH 8, and tested at suitable concentrations.
The concentration giving rise to 50% inhibition of the enzyme was ascertained from the graphic depiction of RT activity versus log Cinh.

[3] = HIV-infected lymphocytes, 3 days, 37° C.
[4] = HIV-infected lymphocytes, 3 days, 37° C., read-out: IC-50

SMILES	MIC [1, 3] [µg/mL]	IC50 [1, 4] [µg/mL]	IC50 ([2]; molar value in parentheses) [nM]	IC50 [2] [nM]	other results
C=C1c2cc(Cl)ccc2NC(=S)C1(C)C [Compound 1]	1 (≈ 4.21 µM)	≥ 0.04			
CCCC=C1c2cc(Cl)ccc2NC(=O)C1(C)C [Compound 2, 4-n-Butylene-6-chloro-3,4-dihydro-3,3-dimethylquinolin-2(1H)-one]	0.1 (≈ 0.379 µM)	~0.015 (≈ 0.0569 µM)	63	64.5	
CCC=C1c2cc(Cl)ccc2NC(=O)C1(C)C [Compound 3]	< 0.08	0.03 (≈ 0.12 µM)		108	
CCC=C1c2cc(Cl)ccc2NC(=S)C1(C)C [Compound 4]	0.0016 (≈ 0.00602 µM)	< 0.00032	8	7.52	
CCCC=C1c2ccccc2NC(=O)C12CCC2 [Compound 5]	0.2 (≈ 0.829 µM)	0.04 (≈ 0.166 µM)	479	479	
CCCC=C1c2ccccc2NC(=O)C12CCCC2 [Compound 6, E/Z-4-n-butylene-3,3-cyclopentylidene-3,4-dihydroquinolin-2(1H)-one]			113	113	
CCCC=C1c2ccccc2NC(=S)C12CCC2 [Compound 7]	< 0.008	~0.00032 (≈ 0.00124 µM)	18	19.4	
CCCC=C1c2ccccc2NC(=S)C12CCCC2 [Compound 8, E/Z-4-n-butylene-3,3-cyclopentylidene-3,4-dihydroquinolin-2(1H)-thione]	0.008 (≈ 0.0295 µM)		16	14.7	IC50 [1]: 0.0016 µg/mL (≈ 0.00589 µM)
CC(C)=C1c2cc(Cl)ccc2NC(=S)C1(C)C [Compound 10]			116	117	IC50 ([1]; HIV-infected lymphocytes, 3 days, unit as printed for compound 10, read-out: IC-50): 0.025 µg/mL (≈ 0.0941 µM)
C=CC=C1c2cc(Cl)ccc2NC(=O)C1(C)C [Compound 13]	> 0.2	0.04 (≈ 0.161 µM)			
C=CC=C1c2cc(Cl)ccc2NC(=S)C1(C)C [Compound 14]	< 0.008	0.005 (≈ 0.019 µM)	18	15.2	
CCCCCC=C1c2cc(Cl)ccc2NC(=S)C1(C)C [Compound 16]	< 0.2	~0.03 (≈ 0.0974 µM)			
CC(C)C=C1c2cc(Cl)ccc2NC(=O)C1(C)C [Compound 17]	< 0.02	~0.04 (≈ 0.152 µM)			
CC(C)C=C1c2cc(Cl)ccc2NC(=S)C1(C)C [Compound 18]	< 0.008	0.002 (≈ 0.00715 µM)	55		IC50 ([2]; first value of compound 18, unit as printed): 54.3 nM
CC(C)CC=C1c2cc(Cl)ccc2NC(=O)C1(C)C [Compound 19]		0.008 (≈ 0.0288 µM)	37	37.1	
CC(C)CC=C1c2cc(Cl)ccc2NC(=S)C1(C)C [Compound 20]	< 0.008	0.0015 (≈ 0.0051 µM)	22	21.4	
CC(C)C=C1c2ccccc2NC(=S)C1(C)C [Compound 24]			270	270	
CCCC=C1c2ccccc2NC(=S)C1(C)C [Compound 28]	0.008 (≈ 0.0326 µM)	~0.01 (≈ 0.0408 µM)	24	23.6	
C=CC=C1c2ccccc2NC(=S)C1(C)C [Compound 30]	< 0.2	~0.02 (≈ 0.0872 µM)			
CCCCCC=C1c2ccccc2NC(=S)C12CCC2 [Compound 32]	0.2 (≈ 0.701 µM)	~0.08 (≈ 0.28 µM)			
CC(C)C=C1c2ccccc2NC(=S)C12CCC2 [Compound 34]	< 0.04	~0.01 (≈ 0.0388 µM)			
CCCC=C1c2cc(OC(F)(F)F)ccc2NC(=S)C1(C)C [Compound 36]	< 0.2	~0.01 (≈ 0.0304 µM)			
CC=C1c2ccccc2NC(=S)C12CCCC2 [Compound 38]	< 0.2	~0.08 (≈ 0.329 µM)			

SMILES	MIC [1, 3] [µg/mL]	IC50 [1, 4] [µg/mL]	IC50 ([2]; molar value in parentheses) [nM]	IC50 [2] [nM]	other results
CCCC=C1c2cc(OC)ccc2NC(=O)C1(C)C [Compound 41, E/Z-4-n-butylene-3,4-dihydro-3,3-dimethyl-6-methoxyquinolin-2(1H)-one]	0.2 (≈ 0.771 µM)	~0.2 (≈ 0.771 µM)			
CCCC=C1c2cc(OC)ccc2NC(=S)C1(C)C [Compound 42, E/Z-4-n-butylene-3,4-dihydro-3,3-dimethyl-6-methoxyquinolin-2(1H)-thione]	< 0.008	0.002 (≈ 0.00726 µM)	9	9.44	
COc1ccc2c(c1)C(=CC(C)C)C(C)(C)C(=O)N2 [Compound 43]	0.2 (≈ 0.771 µM)	0.05 (≈ 0.193 µM)			
CCC=C1c2cc(OC)ccc2NC(=O)C1(C)C [Compound 44]	0.2 (≈ 0.815 µM)	0.06 (≈ 0.245 µM)			
CCC=C1c2cc(OC)ccc2NC(=S)C1(C)C [Compound 45]	0.004 (≈ 0.0153 µM)	0.002 (≈ 0.00765 µM)	9	9.18	
CCOc1ccc2c(c1)C(=CC(C)C)C(C)(C)C(=S)N2 [Compound 47]	< 0.08	~0.015 (≈ 0.0518 µM)			
CCCC=C1c2ccccc2NC(=O)C1(CC)CC [Compound 48]	< 0.08	~0.01 (≈ 0.0389 µM)	54	54.4	
CCCC=C1c2ccccc2NC(=S)C1(CC)CC [Compound 49]	< 0.02	~0.002 (≈ 0.00731 µM)	24	25.6	
CCC=C1c2ccccc2NC(=O)C1(CC)CC [Compound 50]	< 0.1	~0.01 (≈ 0.0411 µM)			
CCC=C1c2ccccc2NC(=S)C1(CC)CC [Compound 51]	0.02 (≈ 0.0771 µM)	~0.002 (≈ 0.00771 µM)	23	23.1	
CCC1(CC)C(=O)Nc2ccccc2C1=CCC(C)C [Compound 52]	0.02 (≈ 0.0737 µM)	~0.004 (≈ 0.0147 µM)	43	44.2	
CCC1(CC)C(=S)Nc2ccccc2C1=CCC(C)C [Compound 53]	0.02 (≈ 0.0696 µM)	~0.002 (≈ 0.00696 µM)	44	45.2	
CCCC=C1c2cc(OCC)ccc2NC(=O)C1(C)C [Compound 54]	0.1 (≈ 0.366 µM)	0.05 (≈ 0.183 µM)			
CCCC=C1c2cc(OCC)ccc2NC(=S)C1(C)C [Compound 55]	< 0.08	~0.006 (≈ 0.0207 µM)	31	31.1	
CCOc1ccc2c(c1)C(=CCC(C)C)C(C)(C)C(=O)N2 [Compound 58]	< 0.1				IC50 ([1]; HIV-infected lymphocytes, 3 days, unit as printed for compound 58, read-out: IC-50): ~0.02 µg/mL (≈ 0.0696 µM)
CCOc1ccc2c(c1)C(=CCC(C)C)C(C)(C)C(=S)N2 [Compound 59]	< 0.02	~0.008 (≈ 0.0264 µM)	46		IC50 ([2]; unit as printed for compound 59): 46.1 nM
CCCC=C1c2cc(Cl)ccc2NC(=NO)C1(C)C [Compound 60]	0.0016 (≈ 0.00574 µM)	~0.0003 (≈ 0.00108 µM)	12	10.8	
CCCCCC=C1c2cc(OC)ccc2NC(=S)C1(C)C [Compound 64]			109	109	
C=CC=C1c2cc(OC)ccc2NC(=S)C1(C)C [Compound 68]				~38.6	
CC/C=C1/c2cc(Cl)ccc2NC(=S)C1(C)C [Compound 72]	< 0.008				
CCC/C=C1/c2cc(Cl)ccc2NC(=O)C1(C)C [Compound 74, Z-4-n-butylene-6-chloro-3,4-dihydro-3,3-dimethylquinolin-2(1H)-one]	0.04 (≈ 0.152 µM)				IC50 ([1]; HIV-infected lymphocytes, 3 days, unit as printed for compound 74, read-out: IC-50): 0.02 µg/mL (≈ 0.0758 µM)
CCC=C1c2cc(Cl)ccc2NC(=O)C12CCCC2 [Compound 77]	0.2 (≈ 0.725 µM)	~0.03 (≈ 0.109 µM)			
CC1(C)C(=S)Nc2ccc(F)cc2C1=C1CCCC1 [Compound 143]	> 0.008	< 0.008			
